Results taken from US10927418B2, “Assays and methods for selecting a treatment regimen for a subject with leukemia” (CELATOR PHARMACEUTICALS, INC., priority 2015, dated 2021).

Tested on: ME-1 and MOLM-14 cells
Experiment: CPX-351 uptake after quizartinib pretreatment
Format: cell-based
Procedure: Uptake of CPX-351 was measured by daunorubicin fluorescence as determined by flow cytometry normalized to untreated control. The x-axis in the graphs depicts the uptake of CPX-351 in standard units of fluorescence and the y-axis represents the normalized cell counts. […] It is clear from FIGS. 9A and 9B that as the pretreatment time is extended, the ability of some of the cells to take up CPX-351 is diminished. The results in FIGS. 9C and 9D are composites of the various timepoints up to 24 hours.

CC(C)(C)c1cc(NC(=O)Nc2ccc(-c3cn4c(n3)sc3cc(OCCN5CCOCC5)ccc34)cc2)no1 [quizartinib]
ability of cells to take up CPX-351 as quizartinib pretreatment time is extended (10 nM quizartinib for 0, 2, 8, 16 and 24 hours, then CPX-351 for 2 hours): diminished | total population of cells exhibiting decreased daunorubicin fluorescence (pretreatment with quizartinib for 16 hours): approximately 50%
